In ChEMBL document CHEMBL5512655, “Discovery of indolylacryloyl-derived oxacins as novel potential broad-spectrum antibacterial candidates” (Eur J Med Chem, 2024):
In brackets after ≈: the same amount, converted by molar mass.

Key:
Type in all cases: functional
Staphylococcus aureus [1] = assay: Antibacterial activity against methicillin-resistant Staphylococcus aureus N315 assessed as inhibition of bacterial growth measured after 24 hrs incubation
Pseudomonas aeruginosa [2] = assay: Antibacterial activity against Pseudomonas aeruginosa ATCC 27853 assessed as inhibition of bacterial growth measured after 24 hrs incubation
Escherichia coli [3] = assay: Antibacterial activity against Escherichia coli assessed as inhibition of bacterial growth measured after 24 hrs incubation
Klebsiella pneumoniae = assay: Antibacterial activity against Klebsiella pneumonia assessed as inhibition of bacterial growth measured after 24 hrs incubation
Escherichia coli [4] = assay: Antibacterial activity against Escherichia coli ATCC 25922 assessed as inhibition of bacterial growth measured after 24 hrs incubation
Enterococcus faecalis = assay: Antibacterial activity against Enterococcus faecalis assessed as inhibition of bacterial growth measured after 24 hrs incubation
Pseudomonas aeruginosa [5] = assay: Antibacterial activity against Pseudomonas aeruginosa assessed as inhibition of bacterial growth measured after 24 hrs incubation
Acinetobacter baumannii = assay: Antibacterial activity against Acinetobacter baumannii assessed as inhibition of bacterial growth measured after 24 hrs incubation
Staphylococcus aureus [6] = assay: Antibacterial activity against Staphylococcus aureus ATCC 25923 assessed as inhibition of bacterial growth measured after 24 hrs incubation
Staphylococcus aureus [7] = assay: Antibacterial activity against Staphylococcus aureus ATCC 29213 assessed as inhibition of bacterial growth measured after 24 hrs incubation
Staphylococcus aureus [8] = assay: Antibacterial activity against Staphylococcus aureus assessed as inhibition of bacterial growth measured after 24 hrs incubation
Escherichia coli [9] = assay: Potency index, ratio of norfloxacin MIC to test compound MIC for antibacterial activity against Escherichia coli assessed as inhibition of bacterial growth measured after 24 hrs incubation
Escherichia coli [10] = assay: Potency index, ratio of norfloxacin MIC to test compound MIC for antibacterial activity against Escherichia coli ATCC 25922 assessed as inhibition of bacterial growth measured after 24 hrs incubation

Structure (SMILES) | MIC (Staphylococcus aureus [1]) [µg/mL] | MIC (Pseudomonas aeruginosa [2]) [µg/mL] | MIC (Escherichia coli [3]) [µg/mL] | MIC (Klebsiella pneumoniae) [µg/mL] | MIC (Escherichia coli [4]) [µg/mL] | MIC (Enterococcus faecalis) [µg/mL] | MIC (Pseudomonas aeruginosa [5]) [µg/mL] | MIC (Acinetobacter baumannii) [µg/mL] | MIC (Staphylococcus aureus [6]) [µg/mL] | MIC (Staphylococcus aureus [7]) [µg/mL] | MIC (Staphylococcus aureus [8]) [µg/mL] | Ratio (Escherichia coli [9]) | Ratio (Escherichia coli [10])
CCCCCCn1cc(/C=C(\C#N)C(=O)N2CCN(c3cc4c(cc3F)c(=O)c(C(=O)O)cn4CC)CC2)c2ccccc21 | 0.5 (≈ 0.837 µM) | 0.5 (≈ 0.837 µM) | 0.5 (≈ 0.837 µM) | 1 (≈ 1.67 µM) | 2 (≈ 3.35 µM) | 32 (≈ 53.5 µM) | 16 (≈ 26.8 µM) | 16 (≈ 26.8 µM) | 64 (≈ 107 µM) | 4 (≈ 6.69 µM) | 0.5 (≈ 0.837 µM) |  | 
CCn1cc(C(=O)O)c(=O)c2cc(F)c(N3CCN(C(=O)/C(C#N)=C/c4c[nH]c5cc(F)ccc45)CC3)cc21 | 8 (≈ 15.1 µM) | 1 (≈ 1.88 µM) | 4 (≈ 7.53 µM) | 0.5 (≈ 0.941 µM) | 2 (≈ 3.76 µM) | 8 (≈ 15.1 µM) | 1 (≈ 1.88 µM) | 2 (≈ 3.76 µM) | 4 (≈ 7.53 µM) | 2 (≈ 3.76 µM) | 1 (≈ 1.88 µM) |  | 
CCn1cc(C(=O)O)c(=O)c2cc(F)c(N3CCN(C(=O)/C(C#N)=C/c4cn(CC#N)c5ccccc45)CC3)cc21 | 2 (≈ 3.62 µM) | 0.5 (≈ 0.905 µM) | 2 (≈ 3.62 µM) | 0.5 (≈ 0.905 µM) | 2 (≈ 3.62 µM) | 1 (≈ 1.81 µM) | 0.5 (≈ 0.905 µM) | 1 (≈ 1.81 µM) | 0.5 (≈ 0.905 µM) | 1 (≈ 1.81 µM) | 4 (≈ 7.24 µM) |  | 
CCCn1cc(/C=C(\C#N)C(=O)N2CCN(c3cc4c(cc3F)c(=O)c(C(=O)O)cn4CC)CC2)c2ccccc21 | 2 (≈ 3.6 µM) | 1 (≈ 1.8 µM) | 0.5 (≈ 0.9 µM) | 0.25 (≈ 0.45 µM) | 0.25 (≈ 0.45 µM) | 1 (≈ 1.8 µM) | 0.5 (≈ 0.9 µM) | 0.25 (≈ 0.45 µM) | 4 (≈ 7.2 µM) | 1 (≈ 1.8 µM) | 0.5 (≈ 0.9 µM) |  | 
CCn1cc(C(=O)O)c(=O)c2cc(F)c(N3CCN(C(=O)/C(C#N)=C/c4cn(CC5CCCCC5)c5ccccc45)CC3)cc21 | 16 (≈ 26.2 µM) | 1 (≈ 1.64 µM) | 1 (≈ 1.64 µM) | 1 (≈ 1.64 µM) | 4 (≈ 6.56 µM) | 32 (≈ 52.5 µM) | 2 (≈ 3.28 µM) | 1 (≈ 1.64 µM) | 16 (≈ 26.2 µM) | 1 (≈ 1.64 µM) | 32 (≈ 52.5 µM) |  | 
CCCCCCn1cc(C(=O)O)c(=O)c2cc(F)c(N3CCN(C(=O)/C(C#N)=C/c4cn(CC(=O)OCC)c5ccccc45)CC3)cc21 | 128 (≈ 195 µM) | 16 (≈ 24.4 µM) | 32 (≈ 48.8 µM) | 16 (≈ 24.4 µM) | 0.5 (≈ 0.763 µM) | 0.25 (≈ 0.381 µM) | 1 (≈ 1.53 µM) | 8 (≈ 12.2 µM) | 4 (≈ 6.1 µM) | 8 (≈ 12.2 µM) | 64 (≈ 97.6 µM) |  | 
CCn1cc(C(=O)O)c(=O)c2cc(F)c(N3CCN(C(=O)/C(C#N)=C/c4cn(CCCN5CCOCC5)c5ccccc45)CC3)cc21 | 0.25 (≈ 0.39 µM) | 1 (≈ 1.56 µM) | 1 (≈ 1.56 µM) | 0.25 (≈ 0.39 µM) | 1 (≈ 1.56 µM) | 1 (≈ 1.56 µM) | 0.25 (≈ 0.39 µM) | 0.5 (≈ 0.78 µM) | 0.25 (≈ 0.39 µM) | 0.25 (≈ 0.39 µM) | 2 (≈ 3.12 µM) |  | 
C=CCn1cc(/C=C(\C#N)C(=O)N2CCN(c3cc4c(cc3F)c(=O)c(C(=O)O)cn4CC)CC2)c2ccccc21 | 2 (≈ 3.61 µM) | 0.25 (≈ 0.452 µM) | 8 (≈ 14.5 µM) | 1 (≈ 1.81 µM) | 1 (≈ 1.81 µM) | 8 (≈ 14.5 µM) | 1 (≈ 1.81 µM) | 2 (≈ 3.61 µM) | 1 (≈ 1.81 µM) | 16 (≈ 28.9 µM) | 1 (≈ 1.81 µM) |  | 
CCn1cc(C(=O)O)c(=O)c2cc(F)c(N3CCN(C(=O)/C(C#N)=C/c4cn(CC(=O)O)c5ccccc45)CC3)cc21 | 0.5 (≈ 0.875 µM) | 0.5 (≈ 0.875 µM) | 0.5 (≈ 0.875 µM) | 0.25 (≈ 0.437 µM) | 0.5 (≈ 0.875 µM) | 0.5 (≈ 0.875 µM) | 0.5 (≈ 0.875 µM) | 0.25 (≈ 0.437 µM) | 0.5 (≈ 0.875 µM) | 1 (≈ 1.75 µM) | 2 (≈ 3.5 µM) |  | 
CCn1cc(C(=O)O)c(=O)c2cc(F)c(N3CCN(C(=O)/C(C#N)=C/c4cn(Cc5ccccc5)c5ccccc45)CC3)cc21 | 4 (≈ 6.63 µM) | 1 (≈ 1.66 µM) | 1 (≈ 1.66 µM) | 0.5 (≈ 0.828 µM) | 2 (≈ 3.31 µM) | 4 (≈ 6.63 µM) | 256 (≈ 424 µM) | 2 (≈ 3.31 µM) | 4 (≈ 6.63 µM) | 4 (≈ 6.63 µM) | 4 (≈ 6.63 µM) |  | 
CCCCCCCCn1cc(C(=O)O)c(=O)c2cc(F)c(N3CCN(C(=O)/C(C#N)=C/c4cn(CC(=O)OCC)c5ccccc45)CC3)cc21 | 8 (≈ 11.7 µM) | 16 (≈ 23.4 µM) | 0.25 (≈ 0.366 µM) | 4 (≈ 5.85 µM) | 0.5 (≈ 0.731 µM) | 1 (≈ 1.46 µM) | 16 (≈ 23.4 µM) | 2 (≈ 2.92 µM) | 4 (≈ 5.85 µM) | 256 (≈ 374 µM) | 32 (≈ 46.8 µM) |  | 
CCn1cc(C(=O)O)c(=O)c2cc(F)c(N3CCN(C(=O)/C(C#N)=C/c4c[nH]c5cccc(Cl)c45)CC3)cc21 | 8 (≈ 14.6 µM) | 1 (≈ 1.82 µM) | 4 (≈ 7.3 µM) | 0.5 (≈ 0.912 µM) | 2 (≈ 3.65 µM) | 8 (≈ 14.6 µM) | 32 (≈ 58.4 µM) | 2 (≈ 3.65 µM) | 4 (≈ 7.3 µM) | 2 (≈ 3.65 µM) | 1 (≈ 1.82 µM) |  | 
CCCCn1cc(C(=O)O)c(=O)c2cc(F)c(N3CCN(C(=O)/C(C#N)=C/c4cn(CC(=O)OCC)c5ccccc45)CC3)cc21 | 2 (≈ 3.19 µM) | 1 (≈ 1.59 µM) | 0.25 (≈ 0.398 µM) | 16 (≈ 25.5 µM) | 0.25 (≈ 0.398 µM) | 1 (≈ 1.59 µM) | 4 (≈ 6.37 µM) | 0.5 (≈ 0.797 µM) | 4 (≈ 6.37 µM) | 1 (≈ 1.59 µM) | 1 (≈ 1.59 µM) | 8 | 2
CCn1cc(C(=O)O)c(=O)c2cc(F)c(N3CCN(C(=O)/C(C#N)=C/c4cn(Cc5ccc(Cl)cc5)c5ccccc45)CC3)cc21 | 32 (≈ 50.1 µM) | 1 (≈ 1.57 µM) | 1 (≈ 1.57 µM) | 0.5 (≈ 0.784 µM) | 4 (≈ 6.27 µM) | 32 (≈ 50.1 µM) | 0.5 (≈ 0.784 µM) | 0.5 (≈ 0.784 µM) | 16 (≈ 25.1 µM) | 16 (≈ 25.1 µM) | 64 (≈ 100 µM) |  | 
CCn1cc(C(=O)O)c(=O)c2cc(F)c(N3CCN(C(=O)/C(C#N)=C/c4c[nH]c5cc(C)ccc45)CC3)cc21 | 0.25 (≈ 0.474 µM) | 2 (≈ 3.79 µM) | 1 (≈ 1.9 µM) | 0.25 (≈ 0.474 µM) | 0.5 (≈ 0.948 µM) | 2 (≈ 3.79 µM) | 0.25 (≈ 0.474 µM) | 0.25 (≈ 0.474 µM) | 0.25 (≈ 0.474 µM) | 1 (≈ 1.9 µM) | 0.25 (≈ 0.474 µM) |  | 
CCn1cc(C(=O)O)c(=O)c2cc(F)c(N3CCN(C(=O)/C(C#N)=C/c4cn(Cc5ccccc5Cl)c5ccccc45)CC3)cc21 | 32 (≈ 50.1 µM) | 1 (≈ 1.57 µM) | 1 (≈ 1.57 µM) | 32 (≈ 50.1 µM) | 0.25 (≈ 0.392 µM) | 16 (≈ 25.1 µM) | 16 (≈ 25.1 µM) | 8 (≈ 12.5 µM) | 32 (≈ 50.1 µM) | 64 (≈ 100 µM) | 256 (≈ 401 µM) |  | 
CCn1cc(C(=O)O)c(=O)c2cc(F)c(N3CCN(C(=O)/C(C#N)=C/c4cn(Cc5ccc(C)cc5)c5ccccc45)CC3)cc21 | 1 (≈ 1.62 µM) | 0.25 (≈ 0.405 µM) | 16 (≈ 25.9 µM) | 0.5 (≈ 0.809 µM) | 8 (≈ 13 µM) | 8 (≈ 13 µM) | 32 (≈ 51.8 µM) | 8 (≈ 13 µM) | 2 (≈ 3.24 µM) | 4 (≈ 6.48 µM) | 32 (≈ 51.8 µM) |  | 
